Measured values published in PubChem BioAssay (NCI).
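Assay format: 96-well plates, 48-hour exposure. GI50 is the concentration that inhibits growth by half. TGI marks complete inhibition of growth.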

Columns and labels:
Assay in all cases: NCI tumour cell line growth inhibition, 48 h
MCF7 breast = tested on: MCF7 breast
DU-145 prostate = tested on: DU-145 prostate
NCI/ADR-RES ovarian = tested on: NCI/ADR-RES ovarian
MDA-MB-231 breast = tested on: MDA-MB-231 breast
DMS 114 small cell lung = tested on: DMS 114 small cell lung
LXFL 529 NSCLC = tested on: LXFL 529 NSCLC
M19-MEL melanoma = tested on: M19-MEL melanoma
DLD-1 colon = tested on: DLD-1 colon
DMS 273 small cell lung = tested on: DMS 273 small cell lung
KM20L2 colon = tested on: KM20L2 colon
HOP-18 NSCLC = tested on: HOP-18 NSCLC

| SMILES | GI50 (MCF7 breast) [nM] | TGI (MCF7 breast) [µM] | GI50 (DU-145 prostate) [µM] | TGI (DU-145 prostate) [µM] | GI50 (NCI/ADR-RES ovarian) [µM] | TGI (NCI/ADR-RES ovarian) [µM] | GI50 (MDA-MB-231 breast) [nM] | TGI (MDA-MB-231 breast) [µM] | TGI (DMS 114 small cell lung) [µM] | TGI (LXFL 529 NSCLC) [µM] | TGI (M19-MEL melanoma) [µM] | TGI (DLD-1 colon) [µM] | TGI (DMS 273 small cell lung) [µM] | TGI (KM20L2 colon) [µM] | GI50 (M19-MEL melanoma) [mM] | GI50 (DLD-1 colon) [mM] | GI50 (HOP-18 NSCLC) [mM] | TGI (HOP-18 NSCLC) [mM] |
| --- | --- | --- | --- | --- | --- | --- | --- | --- | --- | --- | --- | --- | --- | --- | --- | --- | --- | --- |
| COc1c(N2CCN(CN3C(=O)C(=Nc4ccc(S(=O)(=O)Nc5ncccn5)cc4)c4ccccc43)C(C)C2)c(F)cc2c(=O)c(C(=O)O)cn(C3CC3)c12 (centres undefined) | 16500 | > 50 | 11.2 | 35.2 | 23.2 | > 50 | > 50000 | > 50 | – | – | – | – | – | – | – | – | – | – |
| NC(C(=O)[O-])C(=O)[O-].NC1CCCCC1N.[Pt+4] | 1710 | 5.49 | – | – | 4.41 | > 100 | 31800 | > 100 | – | – | – | – | – | – | – | – | – | – |
| Cc1cc2c3ccccc3n(C)c2c2c1C(=O)C=CC2=O | – | 17.5 | – | 44.5 | – | > 100 | – | 32.7 | 13 | 8.98 | 33.4 | 27 | 29.1 | – | – | – | – | – |
| COC(=O)CNC(=O)[C@@H](OC)[C@@H]1Cc2cc3cc(OC4CC(OC5CC(O)C(O)C(C)O5)C(O)C(C)O4)c(C)c(O)c3c(O)c2C(=O)[C@H]1OC1CC(OC2CC(OC3CC(C)(O)C(O)C(C)O3)C(O)C(C)O2)C(O)C(C)O1 (some centres undefined) | 54.6 | > 50 | 0.208 | > 50 | 48.5 | > 50 | 267 | > 50 | – | – | – | – | – | – | – | – | – | – |
| CC1OC2CC(=O)OC2C2=C1C(=O)c1c(O)c3c(c(O)c1C2=O)C1CC(O)C3(O)C(C)O1 (centres undefined) | 126 | 0.366 | 1.38 | 2.69 | 0.273 | 0.917 | 250 | 0.712 | – | – | – | – | – | – | – | – | – | – |
| CC12CCC(=O)C=C1CCC1C2C(O)CC2(C)C(c3csc(N)n3)CCC12 (centres undefined) | – | > 100 | – | > 100 | – | > 100 | – | > 100 | – | – | – | – | – | – | – | – | – | – |
| COc1cc(Nc2nc(N[C@H]3CCCC[C@@H]3N)nc3cc[nH]c(=O)c23)cc(OC)c1 | 1370 | 8.44 | 0.74 | 15.3 | 41.4 | > 100 | 1990 | 9.35 | – | – | – | – | – | – | – | – | – | – |
| CN(C)CCCN1CCc2c([nH]c3ccccc23)C1c1cccnc1 (centres undefined) | – | – | – | – | – | – | – | – | > 100 | > 100 | > 100 | > 100 | > 100 | > 100 | – | – | – | – |
| C=C1CC[C@@H]2[C@](C)(COC(C)=O)[C@H](OC(C)=O)CC[C@@]2(C)[C@@H]1CC(Nc1ccc(S(=O)(=O)Nc2nccc(C)n2)cc1)C1=CCOC1=O (some centres undefined) | 2270 | 12.5 | 3.36 | 11.8 | 2.94 | 13.5 | 3620 | 10.2 | – | – | – | – | – | – | – | – | – | – |
| Cc1ccc(C(O)c2cnc(C)n2Cc2ccccc2)cc1 (centres undefined) | – | > 100 | – | > 100 | – | > 100 | – | > 100 | – | – | – | – | – | – | – | – | – | – |
| O=C(CCl)N1c2ccccc2Sc2c1ccc1ccccc21 | 2520 | 6.47 | 3.32 | 10.8 | 2.74 | 6.55 | 2090 | 4.36 | – | – | – | – | – | – | – | – | – | – |
| CCc1cc(O)c(Cl)c(C)c1Cl | – | 61.6 | – | 31.2 | – | 50.1 | – | 81.1 | – | – | – | – | – | – | – | – | – | – |
| CCOC(=O)NN1C(=O)C(=P(c2ccccc2)(c2ccccc2)c2ccccc2)C(C(=O)OCC)=C1C | – | – | – | – | – | – | – | – | – | > 100 | > 100 | > 100 | > 100 | > 100 | – | – | – | – |
| CCCCN(Cc1ccc(F)cc1)c1ccc(CO)c(Cl)c1 | 2300 | 15 | 17 | 31.3 | 14.1 | 29.3 | 14800 | 29 | – | – | – | – | – | – | – | – | – | – |
| CC(=O)[O-].CC(=O)[O-].[NH2-].[Pt+2].c1ccc2cnccc2c1 | 11300 | 42.8 | 12.2 | 64.2 | 64.4 | > 100 | 27300 | > 100 | – | – | – | – | – | – | – | – | – | – |
| CN(CCOc1ccc(C#N)cc1)CCOc1ccc(C#N)cc1 | > 100000 | > 100 | 90 | > 100 | 43.8 | > 100 | > 100000 | > 100 | – | – | – | – | – | – | – | – | – | – |
| Fc1cccc(COc2ccc(Nc3ncnc4cc(-c5ccc[nH]5)sc34)cc2Cl)c1 | 80.2 | 2.76 | 3.34 | > 16.4 | 3.29 | > 25 | 734 | > 15.7 | – | – | – | – | – | – | – | – | – | – |
| CN(C)C(=S)N=Nc1c(O)[nH]c2ccccc12 | 552 | 13.3 | 0.955 | 11.4 | 0.334 | 2.15 | 1110 | 17.6 | – | – | – | – | – | – | – | – | – | – |
| CC(C)NC(=O)OCCS(=O)c1c(Cl)c(Cl)nn1C (centres undefined) | – | > 100 | – | > 100 | – | > 100 | – | 70.7 | – | – | – | – | – | – | – | – | – | – |
| CC(C)C1CC(O)O[C@@H]([C@@H](C)[C@H]2CC(=O)[C@@H]3[C@@H]4[C@@H](O)[C@H](O)[C@H]5[C@@H](O)[C@H](O)CC[C@]5(C)[C@H]4CC[C@]23C)C1 (some centres undefined) | – | – | – | – | – | – | – | – | – | > 100 | > 100 | > 100 | > 100 | > 100 | – | – | – | – |
| CC1C(=O)C(C)C(c2ccccc2)N(N=O)C1c1ccccc1 (centres undefined) | – | – | – | 567 | – | 867 | – | 250 | – | > 1000 | > 1000 | > 1000 | > 1000 | > 1000 | > 1 | > 1 | > 1 | > 1 |
| CN(C)CCOc1ccc2c(c1)C/C(=C/c1ncc([N+](=O)[O-])n1C)C2=O | – | 7.11 | – | 14 | – | 34.1 | – | 8.42 | – | – | – | – | – | – | – | – | – | – |
| CN(C)c1ccc2cc(-c3ccccc3F)c(N)nc2c1 | 431 | 14.4 | 3.09 | 13.2 | 1.06 | 12.3 | 3710 | 19.6 | – | – | – | – | – | – | – | – | – | – |
| COc1ccc2c3c(c(=O)n(C)c2c1OC)C=CC(C)(C)O3 | – | > 100 | – | > 100 | – | 64.3 | – | 54 | – | – | – | – | – | – | – | – | – | – |
| CC(=O)n1c2ccccc2c2nc3nc(Oc4ccc(C)cc4)c4ccccc4c3cc21 | – | – | – | – | – | – | – | – | > 100 | > 100 | > 100 | > 100 | > 100 | > 100 | – | – | – | – |
| O=C1C2=C(c3ccccc31)C(c1ccccc1)NC(=S)N2 (centres undefined) | – | – | – | – | – | – | – | – | > 100 | > 100 | > 100 | > 100 | > 100 | > 100 | – | – | – | – |
| CCCCCCCCCCCC[n+]1ccc(CCCCCCCCC)cc1 | – | – | 1.37 | 2.75 | 1.86 | 3.62 | – | – | – | – | – | – | – | – | – | – | – | – |
